Laboratory results as given in US9073881B2, “Benzoic acid derivatives” (HOFFMANN-LA ROCHE INC., priority 2011, dated 2015).
pIC50: −log10 of the molar value.

Molecular target: Human eIF4E (Homo sapiens (Human), UniProt P06730)
Experiment: Human eIF4E/4G binding assay (time-resolved fluorescence, HH-eIF4E and biotin-labeled 4G2 peptide)
Conditions: inhibition of binding of His-tagged human eIF4E (aa 28-217) to biotin-labeled 4G2 peptide

Human eIF4E, sequence (P06730 28-217): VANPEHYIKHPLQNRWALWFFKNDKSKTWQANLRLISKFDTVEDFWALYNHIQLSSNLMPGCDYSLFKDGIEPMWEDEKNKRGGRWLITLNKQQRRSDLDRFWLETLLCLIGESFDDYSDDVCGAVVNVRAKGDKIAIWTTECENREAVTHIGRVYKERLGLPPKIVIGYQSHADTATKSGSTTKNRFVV

SMILES | pIC50
N#Cc1ccc(Cl)c(-c2ccc(-c3nc(-c4ccc(Cl)c(Cl)c4)cs3)cc2C(=O)O)c1 [Example 108, 2′-Chloro-5′-cyano-4-[4-(3,4-dichloro-phenyl)-thiazol-2-yl]-biphenyl-2-carboxylic acid] | 5.46
O=C(O)c1cc(-c2nc(-c3ccc(Br)cc3)cs2)ccc1-c1ccccc1[N+](=O)[O-] [Example 27, 4-[4-(4-Bromo-phenyl)-thiazol-2-yl]-2′-nitro-biphenyl-2-carboxylic acid] | 5.40
Cc1cccc(CNC(=O)c2ccc(-c3ccc(-c4nc(-c5ccc(Cl)c(Cl)c5)cs4)cc3C(=O)O)cc2)c1 [Example 70, 4-[4-(3,4-Dichloro-phenyl)-thiazol-2-yl]-4′-(3-methyl-benzylcarbamoyl)-biphenyl-2-carboxylic acid] | 5.77
COc1ccc(Cl)c(-c2ccc(-c3nc(-c4ccc(Cl)c(Cl)c4)cs3)cc2C(=O)O)c1 [Example 93, 2′-Chloro-4-[4-(3,4-dichloro-phenyl)-thiazol-2-yl]-5′-methoxy-biphenyl-2-carboxylic acid] | 5.52
O=C(NCCc1ccccc1)c1ccc(-c2ccc(-c3nc(-c4ccc(Cl)c(Cl)c4)cs3)cc2C(=O)O)cc1 [Example 67, 4-[4-(3,4-Dichloro-phenyl)-thiazol-2-yl]-4′-phenethylcarbamoyl-biphenyl-2-carboxylic acid] | 5.54
O=C(O)c1cc(-c2nc(-c3ccc(Cl)c(Cl)c3)cs2)ccc1-c1cc(Cl)ccc1Cl [Example 148, 2′,5′-Dichloro-4-[4-(3,4-dichloro-phenyl)-thiazol-2-yl]-biphenyl-2-carboxylic acid] | 5.77
O=C(O)c1cc(-c2nc(-c3ccc(Cl)c(Cl)c3)cs2)ccc1-c1ccc(Cl)cc1Cl [Example 150, 2′,4′-Dichloro-4-[4-(3,4-dichloro-phenyl)-thiazol-2-yl]-biphenyl-2-carboxylic acid] | 5.85
COc1ccc(-c2csc(-c3ccc(-c4ccccc4[N+](=O)[O-])c(C(=O)O)c3)n2)cc1 [Example 32, 4-[4-(4-Methoxy-phenyl)-thiazol-2-yl]-2′-nitro-biphenyl-2-carboxylic acid] | 5.08
O=C(O)c1cc(-c2nc(-c3ccc(Cl)c(Cl)c3)cs2)ccc1-c1cc(F)cc(F)c1F [Example 133, 4-[4-(3,4-Dichloro-phenyl)-thiazol-2-yl]-2′,3′,5′-trifluoro-biphenyl-2-carboxylic acid] | 5.80
O=C(O)c1cc(-c2nc(-c3ccc(Cl)c(Cl)c3)cs2)ccc1-c1ccc(F)cc1Cl [Example 134, 2′-Chloro-4-[4-(3,4-dichloro-phenyl)-thiazol-2-yl]-4′-fluoro-biphenyl-2-carboxylic acid] | 5.85
O=C(NCC1CCCO1)c1ccc(-c2ccc(-c3nc(-c4ccc(Cl)c(Cl)c4)cs3)cc2C(=O)O)cc1 (stereo not drawn) [Example 61, 4-[4-(3,4-Dichloro-phenyl)-thiazol-2-yl]-4′-[(tetrahydro-furan-2-ylmethyl)-carbamoyl]-biphenyl-2-carboxylic acid] | 5.26
O=C(NCc1cccs1)c1ccc(-c2ccc(-c3nc(-c4ccc(Cl)c(Cl)c4)cs3)cc2C(=O)O)cc1 [Example 75, 4-[4-(3,4-Dichloro-phenyl)-thiazol-2-yl]-4′-[(thiophen-2-ylmethyl)-carbamoyl]-biphenyl-2-carboxylic acid] | 5.51
O=C(O)c1cc(-c2nc(-c3ccc(Cl)c(Cl)c3)cs2)ccc1-c1ccc(C(=O)N2CCCC2)cc1 [Example 57, 4-[4-(3,4-Dichloro-phenyl)-thiazol-2-yl]-4′-(pyrrolidine-1-carbonyl)-biphenyl-2-carboxylic acid] | 5.37
O=C(NCc1ccncc1)c1ccc(-c2ccc(-c3nc(-c4ccc(Cl)c(Cl)c4)cs3)cc2C(=O)O)cc1 [Example 69, 4-[4-(3,4-Dichloro-phenyl)-thiazol-2-yl]-4′-[(pyridin-4-ylmethyl)-carbamoyl]-biphenyl-2-carboxylic acid] | 5.15
O=C(O)c1cc(-c2nc(-c3cccc(F)c3)cs2)ccc1-c1ccccc1[N+](=O)[O-] [Example 24, 4-[4-(3-Fluoro-phenyl)-thiazol-2-yl]-2′-nitro-biphenyl-2-carboxylic acid] | 5.59
O=Cc1ccccc1-c1ccc(-c2nc(-c3ccc(Cl)c(Cl)c3)cs2)cc1C(=O)O [Example 123, 4-[4-(3,4-Dichloro-phenyl)-thiazol-2-yl]-2′-formyl-biphenyl-2-carboxylic acid] | 5.26
O=C(O)c1cc(-c2nc(-c3ccc(Cl)c(Cl)c3)cs2)ccc1-c1cc(Cl)ccc1[N+](=O)[O-] [Example 14, 5′-Chloro-4-[4-(3,4-dichloro-phenyl)-thiazol-2-yl]-2′-nitro-biphenyl-2-carboxylic acid] | 5.89
Cc1cscc1-c1ccc(-c2nc(-c3ccc(Cl)c(Cl)c3)cs2)cc1C(=O)O [Example 142, 5-[4-(3,4-Dichloro-phenyl)-thiazol-2-yl]-2-(4-methyl-thiophen-3-yl)-benzoic acid] | 5.38
NC(=O)c1ncccc1-c1ccc(-c2nc(-c3ccc(Cl)c(Cl)c3)cs2)cc1C(=O)O [Example 77, 2-(2-Carbamoyl-pyridin-3-yl)-5-[4-(3,4-dichloro-phenyl)-thiazol-2-yl]-benzoic acid] | 5.89
O=C(O)c1ccc(-c2ccc(-c3nc(-c4ccc(Cl)c(Cl)c4)cs3)cc2C(=O)O)c(F)c1 [Example 121, 4-[4-(3,4-Dichloro-phenyl)-thiazol-2-yl]-2′-fluoro-biphenyl-2,4′-dicarboxylic acid] | 5.21
O=C(NC1CCOCC1)c1ccc(-c2ccc(-c3nc(-c4ccc(Cl)c(Cl)c4)cs3)cc2C(=O)O)cc1 [Example 63, 4-[4-(3,4-Dichloro-phenyl)-thiazol-2-yl]-4′-(tetrahydro-pyran-4-ylcarbamoyl)-biphenyl-2-carboxylic acid] | 5.24
CC(=O)c1ccc(-c2ccc(-c3nc(-c4ccc(Cl)c(Cl)c4)cs3)cc2C(=O)O)cc1 [Example 120, 4′-Acetyl-4-[4-(3,4-dichloro-phenyl)-thiazol-2-yl]-biphenyl-2-carboxylic acid] | 5.42
O=C(NCC1CCOCC1)c1ccc(-c2ccc(-c3nc(-c4ccc(Cl)c(Cl)c4)cs3)cc2C(=O)O)cc1 [Example 60, 4-[4-(3,4-Dichloro-phenyl)-thiazol-2-yl]-4′-[(tetrahydro-pyran-4-ylmethyl)-carbamoyl]-biphenyl-2-carboxylic acid] | 5.05
O=C(O)c1cc(-c2nc(-c3ccc(Cl)c(Cl)c3)cs2)ccc1-c1sccc1Cl [Example 146, 2-(3-Chloro-thiophen-2-yl)-5-[4-(3,4-dichloro-phenyl)-thiazol-2-yl]-benzoic acid] | 5.77
O=C(NCc1cccc(C(F)(F)F)c1)c1ccc(-c2ccc(-c3nc(-c4ccc(Cl)c(Cl)c4)cs3)cc2C(=O)O)cc1 [Example 71, 4-[4-(3,4-Dichloro-phenyl)-thiazol-2-yl]-4′-(3-trifluoromethyl-benzylcarbamoyl)-biphenyl-2-carboxylic acid] | 5.49
O=C(O)c1cc(-c2nc(-c3ccc(Cl)c(Cl)c3)cs2)ccc1-c1ccc([N+](=O)[O-])cc1 [Example 45, 4-[4-(3,4-Dichloro-phenyl)-thiazol-2-yl]-4′-nitro-biphenyl-2-carboxylic acid] | 5.39
O=C(O)c1cc(-c2nc(-c3ccc(Cl)c(Cl)c3)cs2)ccc1-c1ccc(F)cc1 [Example 129, 4-[4-(3,4-Dichloro-phenyl)-thiazol-2-yl]-4′-fluoro-biphenyl-2-carboxylic acid] | 5.59
